In patent US8103455B2, “Method of assessing the proliferation or differentiation behaviour of a population of target cells in a biological system” (Medical Research Council, priority 2006, dated 2012):

Experiments:
Assay type in all cases: in vivo, mouse
[1] = test system: mitotic spindles of tail IFE; test: Analysis of mitotic spindle orientation in DAPI stained epidermal wholemounts; conditions: ATRA treatment, topical (3 months per figure legend)
Method: (§1) All trans retinoic acid (Sigma) in ethanol, propanediol 70:30 was applied topically to tail skin and shaved back skin (0.5 ml each) 5 days a week for 3 months at 0.33 mM or daily for 2 weeks at 1 mM.
(§2) Two protocols were used: (1) Mice were induced and after a three month interval treated with either 0.33 mM all trans retinoic acid (ATRA) or vehicle alone for a further 3 months. (2) Mice were treated with 1 mM all trans retinoic acid (ATRA) or vehicle alone for 2 weeks, beginning immediately after induction.

basal cells of tail IFE = test: Proliferation rate of basal cells by Ki67 staining; conditions: ATRA treated mice, topical; controls 16.5+/-2.2%
Method: (§3) Clone size was determined by Z stack confocal imaging of at least 50 clones containing at least one basal cell in each mouse at each time point. […] The percentage of Ki67 positive cells was determined by imaging at least 1500 basal cells in multiple fields from at least 3 mice.
as §1, §2

[2] = test system: epidermal progenitor cells (EPC) of tail epidermis; test: Clone size distribution of EYFP-labelled epidermal progenitor cell clones after topical retinoid treatment, fitted to the model
Method: All animal experiments were conducted as specified by Home Office Project License. The generation of AhcreERT and R26EYFP/EYFP mice has been described previously^15,16. […] Epidermal wholemounts were prepared as described^14. For analysis of back epidermis, 60 μm cryosections were used.
as §3, §1, §2

CC1=C(/C=C/C(C)=C/C=C/C(C)=C/C(=O)O)C(C)(C)CCC1 [ATRA, all trans retinoic acid]
orientation of mitotic spindles [1]: did not alter the orientation of mitotic spindles | proliferation rate assessed by Ki67 staining (mean+/-sem) (basal cells of tail IFE): 57.0+/−3.7% | AD (asymmetric division) rate from fit of model to two cell clone distribution ([2]; at two weeks, both protocols, unchanged from wildtype): 84% | clone size ([2]; both protocols: 0.33 mM for 3 months starting 3 months after induction, 1 mM for 2 weeks from induction, versus vehicle): increase substantially | EPC division rate, factor of increase ([2]; fit of model to two cell clone distribution at two weeks, vehicle factor 1.4): 22
